# “Also recorded” adds a separate entry of the source.
# What was measured:
# patients = experiment: infrared radiation applied concomitantly with parenteral CO2 injection: pain during gas infusion; type: in vivo, human
# Description: The intensity of radiation, however, could cause skin lesions; thus, during the infusions, he started to use as a safety parameter the assessment of skin temperature on the sites were irradiation was applied.
# (§1) a.1) Following antisepsis and placement of limiting devices (G) (tourniquets), initiate the application of 02 to 03 minutes of infrared radiation in the area to be treated with thermal or light infrared radiation emitters (4), prior to initiating the injection of the CO2 gas (2);
# c.1) Monitoring with the infrared emitting source (4) the treated areas (AT) that are receiving the injection of CO2 gas (2), throughout the procedure; in the areas with skin lesions of ischemic etiology, more caution should be exercised when using this radiation.
# acupuncture points = experiment: application of the invention in acupuncture (carboxyacupuncture); type: in vivo, human; conditions: CO2 infusion combined with infrared radiation controlled by thermometry
# Description: Technical variants in the mode of application of the product have also been developed by the proponent, such as: the use of limiting devices or tourniquets (G) at several points of the lower limbs in order to limit the expansion of the gas; distribution and homogenization of the CO2 in areas of interest by means of manual massages with oils, creams, or ointments; as well as the development of specific injection techniques into alternative parenteral routes (intramuscular, subfascial, intrasynovial, and other), as well as new methodologies of injection of the gas (carboxyacupuncture, sclerocarboxytherapy, and carboembolotherapy), all representing methods to optimize the effects and the use of the proposed apparatus (1).
# (§2) Along these lines, the applicant has conjectured several clinical applications for using the method and controlled apparatuses of carbon dioxide infusion (A1) combined with the emission of infrared radiation (4) controlled by cutaneous/body thermometry (5) in an interface apparatus (A2) in vascular diseases, painful syndromes, lo treatment of osteoarticular tissues, and induction of focal reactive oxygen therapy. Following tests and observations, the applicant obtained the following results with the application of the present invention: […]
# [1] = tested on: patients with vascular and painful morbidities; experiment: subcutaneous and intradermal CO2 injections in patients with vascular and painful morbidities (clinical observation); type: in vivo, human
# Description: It was perceived that the beneficial therapeutic effects in the areas of diffusion of CO2 after its injection subcutaneously and intradermally explored the initial “aesthetic” objectives.
# [2] = tested on: patients allergic to iodine contrast media; conditions: intra-arterial injections, even at large volumes; cited from earlier work
# [3] = tested on: patients that had arterial circulatory disease with intermittent claudication; conditions: transcutaneous, bathing in waters rich in CO2; cited from earlier work
# [4] = tested on: Vascular Disease—Miscellaneous; experiment: application of the invention in vascular disease, miscellaneous (healing, grafts, flaps); type: in vivo, human; conditions: CO2 infusion combined with infrared radiation controlled by thermometry
# Description: The present developed method includes two main stages:
# Stage I) Application of the medical grade carbon dioxide—CO2—in vascular diseases and painful syndromes consists of the following stages:
# d) Injections of the gas (2) via the parenteral route (3), standardized by the type of vasculopathy, painful syndrome, or induction of focal reactive oxygen therapy, adjusted by the type of treatment, and automatically controlled by the interfaces of the apparatus (A2);
# Stage II) Application of infrared radiation consists of the following stages:
# as §1, §2
# [5] = tested on: bone tissues and related connective tissues; experiment: application of the invention in direct therapies on bone and related connective tissues; type: in vivo, human; conditions: CO2 infusion combined with infrared radiation controlled by thermometry
# Description: as §2
compound,measurement,setting,value
"O=C=O [CO2, carbon dioxide]",analgesia during the infusion of the gas,patients,produced an important analgesia
same,results in Acupuncture (Carboxyacupuncture),acupuncture points,Greater local effect at systemic and cranial acupuncture points; also recorded: Greater action spectrum on less sensitive meridians; also recorded: Greater longevity of treatment
same,vascular and painful symptoms following injections of the gas,"[1]; CO2 injected subcutaneously and intradermally, patients treated for aesthetics",showed improvement of vascular and painful symptoms
same,therapeutic effects after moving injection sites closer to the painful morbidities and the circulatory system,[1]; modified sites and forms of parenteral injection of CO2,clear intensification of the initially observed therapeutic effects
same,adverse reactions,[2],no significant adverse reactions even at large volumes
same,walking distance,[3],improving the walking distance
same,results in Vascular Disease—Miscellaneous,[4],Accelerates the cicatricial process in lesions difficult to heal; also recorded: Accelerates the cicatricial process in areas of circulatory deficit; also recorded: Augments donor areas of free skin grafts; also recorded: Circulatory improvement in advancement or myocutaneous flaps
same,results in direct therapies on bone tissues and related connective tissues,[5],Facilitates intraoperatory dissection of tendinous sheaths; also recorded: Minimizes post tenolysis adhesions
